Data reported in patent US20240150396A1 (The Texas A&M University System, priority 2021, published 2024).
“And” between values parts separate entries of the source, which are not always exact repeats. Equal entries are not always repeated. Where two headings read alike, the source gives them in different places.

Assays:
[1] = test system: T. cruzi epimastigotes (strain Y); assay: Growth of axenic cultures of T. cruzi epimastigotes
Procedure: Selected cruzain inhibitors in axenic cell cultures of Trypanosoma brucei brucei (procyclic trypomastigotes; ATCC PRA-381) and Trypanosoma cruzi (epimastigote forms; strain Y, ATCC 50832GFP) were tested. T. b. brucei is grown in SDM-79 medium, and T. cruzi is grown in ATCC medium (1029 LIT medium). Both media included fetal calf serum (10%) and penicillin/streptomycin (50 U/mL). […] T. brucei and T. cruzi (5 mL in flask cultures) at 26° C. were seeded at ˜3×10^6 cells, and diluted daily maintaining a mid-log growth phase for up to 100 hrs. Cell counts were scored using a Z2 Coulter Counter. After each cell dilution, fresh compound or an equal volume of DMSO (control samples), was supplemented into the cultures. […] Cruzain inhibitors where the highest concentration reflects the upper limit of solubilities of the inhibitors in 1% (v/v) DMSO solutions were evaluated. These inhibitors are likely to bind to proteins in fetal calf serum, and for these reasons, fresh inhibitors were added each time cells were re-fed.
Selected cruzain inhibitors were evaluated in axenic cell cultures of T. b. brucei and T. cruzi. Procyclic trypomastigotes of T. b. brucei (ATCC PRA-381) were grown in the SDM-79 medium at 26° C., and bloodstream forms (ATCC PRA-383) were grown at 37° C. in the HMI-9 medium at 5% C02. T. cruzi (epimastigote forms, strain Y, ATCC 50832GFP) was grown in the ATCC medium (1029 LIT medium). Both forms of T. b. brucei and T. cruzi were grown in media containing 10% fetal bovine serum (FBS) and penicillin/streptomycin (50 U mL^−1). […] Control samples contained equal amounts of DMSO. T. b. brucei and T. cruzi (5 mL in flask cultures) were seeded at ˜3×10^6 cells and diluted daily, maintaining a mid-log growth phase for up to 120 h. […] After each cell dilution, fresh compound or an equal volume of DMSO (control samples) was supplemented into the cultures, while maintaining a constant concentration of each inhibitor. Cell counts were scored using a Z2 Coulter Counter.

[2] = test system: T. b. brucei bloodstream forms; assay: Growth of axenic cultures of T. b. brucei bloodstream forms (BSFs)
[3] = biological target: human cathepsin B (Homo sapiens (Human), UniProt P07858); assay: Human cathepsin B inhibition, Z-FR-AMC assay; assay type: biochemical; conditions: pH 5.5, 25° C.
How it was run: (§1)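 Recombinant human enzymes were assayed at 25°C in sodium acetate pH 5.5 with 1 mM CHAPS, 1 mM EDTA, 5 mM DTT and 10% DMSO final, using the fluorogenic substrate Z-FR-AMC. AMC release (ex 360/em 460 nm) was followed over 30–60 min and converted to rates (μM/s) via an AMC standard curve.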

[4] = test system: T. cruzi (Ca-I/72) in C2C12 murine cardiomyoblasts; assay: T. cruzi-infected murine cardiomyoblasts (C2C12); assay type: cell-based, Trypanosoma cruzi; conditions: for EC50: read-out: EC50 T. cruzi-infected cardiomyoblasts
How it was run: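 C2C12 mouse cardiomyoblasts infected with T. cruzi Ca-I/72 (10^3 and 10^4 parasites) and exposed to 3-fold serial dilutions of inhibitor from a 10 μM maximum, 48 h at 37° C. After PFA fixation and DAPI staining, automated imaging quantified parasites and host cells, giving EC50 and host CC50.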

[5] = biological target: human cathepsin L (Homo sapiens (Human), UniProt P07711); assay: Human cathepsin L inhibition, Z-FR-AMC assay; assay type: biochemical; conditions: for Ki: pH 5.5, 25° C.
How it was run: as §1

[6] = test system: T. b. brucei procyclic forms; assay: Growth of axenic cultures of T. b. brucei procyclic forms (PCFs); assay type: cell-based, Trypanosoma brucei brucei; conditions: axenic culture; read-out: EC50 T. b. brucei PCF
[7] = test system: human dermal fibroblasts; assay: Human cell toxicity, resazurin viability; assay type: cell-based
How it was run: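 Primary human dermal fibroblasts, 2400 cells/well, exposed in duplicate to inhibitors at final 0.001-0.1 mM in 1% DMSO (1% DMSO control) for 48 h at 37 °C. Resazurin then added and viability read by fluorescence (544/590 nm) after further 24 h.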

[8] = biological target: human cathepsin S (Homo sapiens (Human), UniProt P25774); assay: Human cathepsin S inhibition; assay type: biochemical; conditions: pH 5.5, 25° C., 10% DMSO
Procedure: Cruzain inhibitors were added at seven concentrations and one fixed concentration of Cbz-Phe-Arg-AMC, and time courses of AMC formation were analyzed as with cruzain.

[9] = read-out: T. cruzi axenic culture EC50, epimastigotes
[10] = read-out: EC50 T. b. brucei BSF, axenic culture
[11] = 10% DMSO, read-out: Ki* Human Cathepsin B
[12] = Trypanosoma cruzi, C2C12, C2C12 murine cardiomyoblasts
[13] = 10% DMSO, read-out: Ki* Human Cathepsin L

Sequence of human cathepsin S (P25774 115-331): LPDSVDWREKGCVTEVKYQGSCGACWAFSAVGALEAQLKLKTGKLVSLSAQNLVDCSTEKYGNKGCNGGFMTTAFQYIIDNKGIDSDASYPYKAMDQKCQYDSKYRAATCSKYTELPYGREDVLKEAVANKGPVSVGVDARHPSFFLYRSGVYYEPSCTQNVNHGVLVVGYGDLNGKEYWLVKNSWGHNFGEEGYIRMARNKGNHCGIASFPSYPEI
Sequence of human cathepsin L (P07711 114-333): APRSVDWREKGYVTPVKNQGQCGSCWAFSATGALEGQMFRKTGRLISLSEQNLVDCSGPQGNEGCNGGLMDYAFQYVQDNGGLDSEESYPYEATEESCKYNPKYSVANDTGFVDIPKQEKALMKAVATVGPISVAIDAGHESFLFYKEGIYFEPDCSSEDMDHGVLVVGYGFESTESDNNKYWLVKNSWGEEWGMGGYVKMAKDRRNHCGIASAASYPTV

| Structure (SMILES) | EC50 [1, 9] | EC50 [2, 10] | Ki ([3]; read-out: Ki* hCatB) | EC50 ([4]; C2C12 murine cardiomyoblasts) | Ki ([5]; read-out: Ki* hCatL) | EC50 [6] | EC50 ([2]; Trypanosoma brucei, read-out: EC50 T. b. brucei BSF, axenic culture) | CC50 ([7]; human, 48 h) | Ki [3, 11] | Selectivity Index CC50/EC50 ([4]; CC50 human dermal fibroblasts / EC50 infected cardiomyoblasts) | EC50 [4, 12] | Ki [8] | Ki [5, 13] | CC50 [7] | EC50 ([1]; Trypanosoma cruzi, read-out: T. cruzi axenic culture EC50, epimastigotes) | T. cruzi axenic culture EC50 ([1]; epimastigotes) | CC50 ([7]; human dermal fibroblasts, read-out: Human Cell Cytotoxicity CC50) | selectivity for cruzain vs human cathepsin L and S [5] |
| --- | --- | --- | --- | --- | --- | --- | --- | --- | --- | --- | --- | --- | --- | --- | --- | --- | --- | --- |
| CN1CCN(C(=O)NC(Cc2ccccc2)C(=O)NC2Cc3ccccc3OC2O)CC1 (stereo not shown) [Compound 36] | 0.54 µM | 0.6 µM | 1.27 ± 0.07 µM | 29 µM and ~30 µM | 0.02 ± 0.0009 µM | 4 µM |  |  |  |  |  |  |  |  |  |  |  |  |
| C[n+]1ccccc1/C=C/[C@H](Cc1ccccc1)NC(=O)[C@H](Cc1ccccc1)NC(=O)OCc1ccccc1.[I-] [Compound 12, 2-((S,E)-3-((S)-2-(((Benzyloxy)carbonyl)amino)-3-phenylpropanamido)-4-phenylbut-1-en-1-yl)-1-methylpyridin-1-ium Iodide] |  |  |  | 9.9 ± 0.5 µM |  |  | 6.6 ± 0.6 µM | > 100 µM | 19 ± 4 µM | >10 | 5 to 8 µM | 0.87 ± 0.07 µM | 0.7 ± 0.04 µM |  |  |  |  |  |
| C[n+]1ccccc1/C=C/[C@H](CCc1ccccc1)NC(=O)[C@H](Cc1ccccc1)NC(=O)OCc1ccccc1 [Compound 15, 2-((S,E)-3-((S)-2-(((Benzyloxy)carbonyl)amino)-3-phenylpropanamido)-5-phenylpent-1-en-1-yl)-1-methylpyridin-1-ium] | 2 to 20 µM and 2.1 µM | 2.8 ± 0.1 µM |  | 5.4 ± 0.9 µM |  | 5 to 15 µM and 5.9 µM |  |  | 37 ± 6 µM |  |  | 0.32 ± 0.04 µM | 0.88 ± 0.06 µM | > 100 µM |  |  |  |  |
| O=C(N[C@@H](Cc1ccccc1)C(=O)N[C@H](/C=C/c1ccccn1)Cc1ccccc1)OCc1ccccc1 [Compound 11, Benzyl ((S)-1-Oxo-3-phenyl-1-(((S,E)-1-phenyl-4-(pyridin-2-yl)-but-3-en-2-yl)amino)propan-2-yl)carbamate] |  |  |  | 5 to 10 µM |  |  |  |  | 28 ± 4 µM |  | 5 to 8 µM | 1.8 ± 0.3 µM | 4.3 ± 0.5 µM |  | > 20 µM | poorly effective | > 100 µM |  |
| O=C(N[C@@H](Cc1ccccc1)C(=O)N[C@H]1Cc2ccccc2OC1O)OCc1ccccc1 (stereo partly shown) [Compound 30] | 2 to 20 µM | 6.8 ± 1.1 µM | 4.5 ± 0.1 µM | 5 to 8 µM and 3 µM and 3 to 5.7 µM | 0.028 ± 0.0009 µM | 17 µM |  |  |  |  |  |  |  |  |  |  |  | more than 10 fold |
